In PubChem BioAssay (NCI):
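Assay format: 96-well plates, 48-hour exposure. The concentration for 50% growth inhibition is given as GI50. TGI marks complete inhibition of growth.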

Experiments:
Experiment in all cases: DTP human tumour cell line panel, 48 h
A498 renal = system: A498 renal
CAKI-1 renal = system: CAKI-1 renal
EKVX NSCLC = system: EKVX NSCLC
HOP-62 NSCLC = system: HOP-62 NSCLC
IGROV1 ovarian = system: IGROV1 ovarian
M14 melanoma = system: M14 melanoma
MALME-3M melanoma = system: MALME-3M melanoma
OVCAR-4 ovarian = system: OVCAR-4 ovarian
UACC-257 melanoma = system: UACC-257 melanoma
UACC-62 melanoma = system: UACC-62 melanoma

Compound | TGI (A498 renal) [µM] | TGI (CAKI-1 renal) [µM] | TGI (EKVX NSCLC) [µM] | TGI (HOP-62 NSCLC) [µM] | TGI (IGROV1 ovarian) [µM] | TGI (M14 melanoma) [µM] | TGI (MALME-3M melanoma) [µM] | TGI (OVCAR-4 ovarian) [µM] | TGI (UACC-257 melanoma) [µM] | TGI (UACC-62 melanoma) [µM] | GI50 (A498 renal) [µM] | GI50 (CAKI-1 renal) [µM] | GI50 (EKVX NSCLC) [µM] | GI50 (UACC-62 melanoma) [µM]
CCN1C/C(=C\c2ccc(Cl)cc2)c2nc(N)c(C#N)c(-c3ccc(Cl)cc3)c2C1 | > 100 | > 100 | > 100 | > 100 | > 100 | > 100 | > 100 | > 100 | > 100 | > 100 | – | – | – | –
O=C(O)CSc1ccccc1C(=O)O | > 100 | > 100 | > 100 | > 100 | > 100 | > 100 | > 100 | > 100 | 34.1 | > 100 | – | – | – | –
COc1cccc(N=N/C(=N/NC(=O)c2ccc(C)cc2)c2ccc(N(CCC#N)CCC#N)cc2OC)c1 | > 100 | > 100 | 37.4 | > 100 | > 100 | > 100 | > 100 | > 100 | > 100 | > 100 | – | – | – | –
Cc1c(C(=O)c2ccc(N)c3ccccc23)c2ccccc2n1CCN1CCOCC1 | 81.8 | > 100 | > 92.2 | > 90.1 | > 89.6 | 63.7 | 61.8 | > 47.8 | 58.5 | 40.6 | – | – | – | –
C1=NCCNCCNCCN=Cc2ccc(cc2)OCc2cccc(n2)COc2ccc1cc2 | > 100 | > 100 | > 100 | > 100 | > 100 | > 100 | > 100 | > 100 | > 100 | > 100 | – | – | – | –
Cc1cccc2c(N)c3cccc(C(=O)NCC[N+](C)(C)Cc4ccc([N+](=O)[O-])s4)c3nc12 | 23.6 | > 73.8 | 41.5 | 32.5 | 26 | 39.7 | 25 | 25.1 | > 78 | > 49.1 | – | – | – | –
COC(=O)[C@@H]1CS(=O)(=O)C(C(C)C)N1C(C)=O (some centres undefined) | > 100 | > 100 | > 100 | > 100 | > 100 | > 100 | > 100 | > 100 | > 100 | > 100 | – | – | – | –
C[C@]12CC[C@H]3[C@@H](CCC4=CC(=O)C=C[C@@]43OC(=O)C(F)(F)F)[C@@H]1CCC2=O | > 100 | > 100 | > 100 | > 100 | > 100 | > 100 | > 100 | > 100 | > 100 | > 100 | – | – | – | –
CCn1c(=O)c2nc(SC)sc2n(-c2ccc(C)cc2)c1=O | > 100 | > 100 | > 100 | > 100 | > 100 | > 45.2 | > 81.7 | > 100 | > 100 | > 100 | 28.2 | > 100 | 71.4 | 41.2
Cc1ccc(S(=O)(=O)N2C[C@@H]3CC[C@]4(CO[Si](C)(C)C(C)(C)C)N[C@@H](c5ccccc5)[C@H]2[C@H]34)cc1 | > 100 | > 100 | > 100 | > 100 | > 100 | > 100 | 46.3 | > 100 | 93.8 | > 100 | – | – | – | –
CN1/C(=C/C=C/C=C/C=C2C(=O)c3ccccc3C2=O)C(C)(C)c2ccccc21 | 65.2 | > 100 | > 100 | > 100 | > 100 | > 100 | 94.1 | > 100 | 54.1 | 58.3 | – | – | – | –
O=C(O)CCC(=O)OCN1C(=O)C2C3C=CC(C2C1=O)C1C2C(=O)N(COC(=O)CCC(=O)O)C(=O)C2C31 (centres undefined) | > 100 | > 100 | > 100 | > 100 | > 100 | > 100 | > 100 | > 100 | > 100 | > 100 | – | – | – | –
O=c1[nH]nc(-c2ccccc2)n1/N=C/c1ccc([N+](=O)[O-])o1 | 23 | 28.2 | 24 | 19.7 | 16.9 | 11.2 | 9.38 | 16.7 | 11.9 | 11.2 | – | – | – | –
O=[N+]([O-])c1ccc(NN=C2CN3CCN(C2)c2ccccc23)c([N+](=O)[O-])c1 | > 100 | > 100 | > 100 | > 100 | > 100 | > 100 | > 100 | > 100 | > 100 | > 100 | – | – | – | –
COC(=O)C1CC2(C)C=CC1N(C(=O)OCc1ccccc1)C2 (centres undefined) | > 100 | > 100 | > 100 | > 100 | > 100 | > 100 | > 100 | > 100 | > 100 | > 100 | – | – | – | –
C=C(C(=O)O[C@H]1C/C(C)=C/CC/C(CO)=C/[C@H]2C(=O)OC(=C)[C@H]12)C(O)CO (some centres undefined) | 32.7 | 9.1 | 36.5 | > 59.9 | 39.5 | 28.5 | 10.7 | 46.9 | 24.1 | 31.5 | – | – | – | –
CCCCc1ccc(Nc2ncc3ncn(COCCO)c3n2)cc1 | > 100 | > 100 | 88.7 | > 100 | > 100 | 53 | 68.4 | > 100 | 72.5 | 77.7 | – | – | – | –
COC(=O)C1=C(OC(=O)/C(=C/c2ccccc2)c2ccc(OC)cc2)C(C(=O)OC)[C@@]2(O)[C@@H](C(=O)OC)[C@H](C)C[C@@H]1[C@@H]2C(=O)OC (some centres undefined) | > 100 | > 100 | > 100 | > 100 | > 100 | > 100 | > 100 | > 100 | > 100 | > 100 | – | – | – | –
N#CC1(C#N)C(C#N)(C#N)C1(C#N)C(N)=O | > 100 | > 100 | > 100 | > 100 | > 100 | > 100 | > 100 | > 100 | > 100 | > 100 | – | – | – | –
